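Briefly, cells in 96-well plates were exposed to five compound concentrations for 48 h, and endpoints were estimated by linear interpolation. TGI marks complete inhibition of growth.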
What was measured:
Assay in all cases: NCI-60 cell line screen, 48 h
786-0 renal = system: 786-0 renal
A498 renal = system: A498 renal
A549 NSCLC = system: A549 NSCLC
ACHN renal = system: ACHN renal
CAKI-1 renal = system: CAKI-1 renal
CCRF-CEM leukemia = system: CCRF-CEM leukemia
COLO 205 colon = system: COLO 205 colon
DLD-1 colon = system: DLD-1 colon
DMS 114 small cell lung = system: DMS 114 small cell lung
DMS 273 small cell lung = system: DMS 273 small cell lung
EKVX NSCLC = system: EKVX NSCLC
HCC-2998 colon = system: HCC-2998 colon
HCT-116 colon = system: HCT-116 colon
HCT-15 colon = system: HCT-15 colon
HL-60(TB) leukemia = system: HL-60(TB) leukemia
HOP-18 NSCLC = system: HOP-18 NSCLC
HOP-62 NSCLC = system: HOP-62 NSCLC
HT29 colon = system: HT29 colon
IGROV1 ovarian = system: IGROV1 ovarian
K-562 leukemia = system: K-562 leukemia
KM12 colon = system: KM12 colon
KM20L2 colon = system: KM20L2 colon
LOX IMVI melanoma = system: LOX IMVI melanoma
LXFL 529 NSCLC = system: LXFL 529 NSCLC
M14 melanoma = system: M14 melanoma
M19-MEL melanoma = system: M19-MEL melanoma
MALME-3M melanoma = system: MALME-3M melanoma
MOLT-4 leukemia = system: MOLT-4 leukemia
NCI-H226 lung = system: NCI-H226 lung
NCI-H23 lung = system: NCI-H23 lung
NCI-H460 lung = system: NCI-H460 lung
NCI-H522 lung = system: NCI-H522 lung
OVCAR-3 ovarian = system: OVCAR-3 ovarian
OVCAR-4 ovarian = system: OVCAR-4 ovarian
OVCAR-5 ovarian = system: OVCAR-5 ovarian
OVCAR-8 ovarian = system: OVCAR-8 ovarian
RPMI-8226 leukemia = system: RPMI-8226 leukemia
RXF 393 renal = system: RXF 393 renal
SF-268 CNS = system: SF-268 CNS
SF-295 CNS = system: SF-295 CNS
SF-539 CNS = system: SF-539 CNS
SK-MEL-2 melanoma = system: SK-MEL-2 melanoma
SK-MEL-28 melanoma = system: SK-MEL-28 melanoma
SK-MEL-5 melanoma = system: SK-MEL-5 melanoma
SK-OV-3 ovarian = system: SK-OV-3 ovarian
SN12C renal = system: SN12C renal
SNB-19 CNS = system: SNB-19 CNS
SNB-75 CNS = system: SNB-75 CNS
SNB-78 CNS = system: SNB-78 CNS
SR leukemia = system: SR leukemia
SW-620 colon = system: SW-620 colon
TK-10 renal = system: TK-10 renal
U251 CNS = system: U251 CNS
UACC-257 melanoma = system: UACC-257 melanoma
UACC-62 melanoma = system: UACC-62 melanoma
UO-31 renal = system: UO-31 renal
XF 498 CNS = system: XF 498 CNS
HOP-92 NSCLC = system: HOP-92 NSCLC

c1ccc2c(c1)N=C(c1cccc3ccccc13)CC(c1cccc3ccccc13)S2 (configuration not stated)
TGI (786-0 renal): 13.5 µM
TGI (A498 renal): 20.8 µM
TGI (A549 NSCLC): 41.9 µM
TGI (ACHN renal): 23.5 µM
TGI (CAKI-1 renal): 13.2 µM
TGI (CCRF-CEM leukemia): 4.67 µM
TGI (COLO 205 colon): 28.3 µM
TGI (DLD-1 colon): 16.2 µM
TGI (DMS 114 small cell lung): 9.96 µM
TGI (DMS 273 small cell lung): > 44.7 µM
TGI (EKVX NSCLC): 28.7 µM
TGI (HCC-2998 colon): 11.2 µM
TGI (HCT-116 colon): 12.9 µM
TGI (HCT-15 colon): 22.5 µM
TGI (HL-60(TB) leukemia): 3.56 µM
TGI (HOP-18 NSCLC): 13.8 µM
TGI (HOP-62 NSCLC): 26.1 µM
TGI (HT29 colon): 10.1 µM
TGI (IGROV1 ovarian): 19.7 µM
TGI (K-562 leukemia): 6.32 µM
TGI (KM12 colon): 9.6 µM
TGI (KM20L2 colon): 10.4 µM
TGI (LOX IMVI melanoma): 11.4 µM
TGI (LXFL 529 NSCLC): 11.4 µM
TGI (M14 melanoma): 26.2 µM
TGI (M19-MEL melanoma): 20.3 µM
TGI (MALME-3M melanoma): 28.7 µM
TGI (MOLT-4 leukemia): 5.15 µM
TGI (NCI-H226 lung): 24.6 µM
TGI (NCI-H23 lung): 12.5 µM
TGI (NCI-H460 lung): 19.5 µM
TGI (NCI-H522 lung): 8.44 µM
TGI (OVCAR-3 ovarian): 9.68 µM
TGI (OVCAR-4 ovarian): 12.4 µM
TGI (OVCAR-5 ovarian): 16.8 µM
TGI (OVCAR-8 ovarian): 16.6 µM
TGI (RPMI-8226 leukemia): 4.85 µM
TGI (RXF 393 renal): 16.5 µM
TGI (SF-268 CNS): 20.4 µM
TGI (SF-295 CNS): 27.2 µM
TGI (SF-539 CNS): 14.5 µM
TGI (SK-MEL-2 melanoma): 33 µM
TGI (SK-MEL-28 melanoma): 25.9 µM
TGI (SK-MEL-5 melanoma): 22.1 µM
TGI (SK-OV-3 ovarian): 29.8 µM
TGI (SN12C renal): 15.9 µM
TGI (SNB-19 CNS): 12.9 µM
TGI (SNB-75 CNS): 19.1 µM
TGI (SNB-78 CNS): 33.4 µM
TGI (SR leukemia): 4.89 µM
TGI (SW-620 colon): 6.81 µM
TGI (TK-10 renal): 25.8 µM
TGI (U251 CNS): 6.08 µM
TGI (UACC-257 melanoma): 31.8 µM
TGI (UACC-62 melanoma): 19.8 µM
TGI (UO-31 renal): 23.6 µM
TGI (XF 498 CNS): 22.1 µM

O=C1NC(=S)S/C1=C/c1ccco1
TGI (A498 renal): 64.3 µM
TGI (A549 NSCLC): > 100 µM
TGI (ACHN renal): > 100 µM
TGI (CAKI-1 renal): > 100 µM
TGI (COLO 205 colon): > 100 µM
TGI (DLD-1 colon): > 100 µM
TGI (DMS 114 small cell lung): > 100 µM
TGI (DMS 273 small cell lung): > 100 µM
TGI (EKVX NSCLC): > 100 µM
TGI (HCC-2998 colon): > 100 µM
TGI (HCT-116 colon): > 100 µM
TGI (HCT-15 colon): > 100 µM
TGI (HOP-92 NSCLC): > 100 µM
TGI (HT29 colon): > 100 µM
TGI (IGROV1 ovarian): > 100 µM
TGI (LOX IMVI melanoma): > 100 µM
TGI (LXFL 529 NSCLC): > 100 µM
TGI (M14 melanoma): > 100 µM
TGI (NCI-H226 lung): > 100 µM
TGI (NCI-H23 lung): > 100 µM
TGI (NCI-H460 lung): > 100 µM
TGI (OVCAR-3 ovarian): > 100 µM
TGI (OVCAR-4 ovarian): > 100 µM
TGI (OVCAR-5 ovarian): > 100 µM
TGI (OVCAR-8 ovarian): > 100 µM
TGI (RXF 393 renal): > 100 µM
TGI (SF-268 CNS): > 100 µM
TGI (SF-295 CNS): > 100 µM
TGI (SF-539 CNS): > 100 µM
TGI (SK-MEL-28 melanoma): > 100 µM
TGI (SK-MEL-5 melanoma): > 100 µM
TGI (SK-OV-3 ovarian): > 100 µM
TGI (SN12C renal): > 100 µM
TGI (SNB-19 CNS): > 100 µM
TGI (SNB-75 CNS): > 100 µM
TGI (SW-620 colon): > 100 µM
TGI (TK-10 renal): > 100 µM
TGI (UACC-257 melanoma): > 100 µM
TGI (UACC-62 melanoma): > 100 µM
TGI (UO-31 renal): > 100 µM

Reference: PubChem BioAssay (NCI)
